pIC50: −log10 of the molar value.
System: 276233-004-R-J1-PDC KRAS spheroids with HUVEC/MSC, viability
Assay: Anticancer human tumor 276233-004-R-J1-PDC patient-derived colon adenocarcinoma cell line growth inhibition [KRAS2]
Details: for pIC50: curve of first compound; for viability, T/C: stronger effect = lower value
Summary of the method: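 KRAS-mutant tumor cells were grown as spheroids with HUVEC endothelial cells and human MSCs as stroma. Targeted agents were tested alone and with KRAS pathway inhibitors. Doses started at or near clinical Cmax, or 10 microM, descending half-log.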

[1] = second compound 0.1 µM, first compound 0.0316 µM
[2] = second compound 0.1 µM, first compound 0.1 µM
[3] = second compound 0.1 µM, first compound 0.316 µM
[4] = second compound 0.1 µM, first compound 1 µM
[5] = second compound 0.1 µM, first compound 3.16 µM
[6] = second compound 0.1 µM, first compound 10 µM
[7] = second compound 0.316 µM, first compound 0.0316 µM
[8] = second compound 0.316 µM, first compound 0.1 µM
[9] = second compound 0.316 µM, first compound 0.316 µM
[10] = second compound 0.316 µM, first compound 1 µM
[11] = second compound 0.316 µM, first compound 3.16 µM
[12] = second compound 0.316 µM, first compound 10 µM
[13] = second compound 1 µM, first compound 0.0316 µM
[14] = second compound 1 µM, first compound 0.1 µM
[15] = second compound 1 µM, first compound 0.316 µM
[16] = second compound 1 µM, first compound 1 µM
[17] = second compound 1 µM, first compound 3.16 µM
[18] = second compound 1 µM, first compound 10 µM
[19] = second compound 3.16 µM, first compound 0.0316 µM
[20] = second compound 3.16 µM, first compound 0.1 µM
[21] = second compound 3.16 µM, first compound 0.316 µM
[22] = second compound 3.16 µM, first compound 1 µM
[23] = second compound 3.16 µM, first compound 3.16 µM
[24] = second compound 3.16 µM, first compound 10 µM
[25] = second compound 10 µM, first compound 0.0316 µM
[26] = second compound 10 µM, first compound 0.1 µM
[27] = second compound 10 µM, first compound 0.316 µM
[28] = second compound 10 µM, first compound 1 µM
[29] = second compound 10 µM, first compound 3.16 µM
[30] = second compound 10 µM, first compound 10 µM
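Note: cells exposed to agents for seven days before viability read.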
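Throughout, for viability, T/C: 100% = DMSO vehicle control wells and lower values mean fewer viable cells.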

With `COc1cc(Nc2ncc3c(n2)-c2ccc(Cl)cc2C(c2c(F)cccc2OC)=NC3)ccc1C(=O)O` + C=CC(=O)N1CCN(c2nc(=O)n(-c3c(C)ccnc3C(C)C)c3nc(-c4c(O)cccc4F)c(F)cc23)C(C)C1 the pIC50 (second compound 0.1 µM) was less than 5.00, the pIC50 (second compound 0.316 µM) was less than 5.00 and the pIC50 (second compound 1 µM) was less than 5.00. It also gave a pIC50 (second compound 3.16 µM) of less than 5.00, a pIC50 (second compound 10 µM) of less than 5.00 and a viability, T/C [1] of 132%. It also gave a viability, T/C [2] of 118%, a viability, T/C [3] of 117% and a viability, T/C [4] of 104%. It also gave a viability, T/C [5] of 116%, a viability, T/C [6] of 88.3% and a viability, T/C [7] of 112%. For the same compound, the viability, T/C [8] was 110%, the viability, T/C [9] was 117% and the viability, T/C [10] was 111%. It also gave a viability, T/C [11] of 99%, a viability, T/C [12] of 97% and a viability, T/C [13] of 102%. For the same compound, the viability, T/C [14] was 118%, the viability, T/C [15] was 108% and the viability, T/C [16] was 115%. For the same compound, the viability, T/C [17] was 110%, the viability, T/C [18] was 96.5% and the viability, T/C [19] was 139%. It also gave a viability, T/C [20] of 125%, a viability, T/C [21] of 110% and a viability, T/C [22] of 105%. For the same compound, the viability, T/C [23] was 96.3%, the viability, T/C [24] was 89.1% and the viability, T/C [25] was 88.3%. The viability, T/C [26] was 107%, the viability, T/C [27] was 87.4% and the viability, T/C [28] was 91.6%. For the same compound, the viability, T/C [29] was 79.3% and the viability, T/C [30] was 86.5%.

In the case of `CCN1CCN(Cc2ccc(Nc3ncc(F)c(-c4cc(F)c5nc(C)n(C(C)C)c5c4)n3)nc2)CC1` + CC1OCC2(CCN(c3cnc(Sc4ccnc(N)c4Cl)c(N)n3)CC2)C1N, the pIC50 (second compound 0.1 µM) was less than 6.00, the pIC50 (second compound 0.316 µM) was less than 6.00 and the pIC50 (second compound 1 µM) was less than 6.00. It also gave a pIC50 (second compound 3.16 µM) of less than 6.00, a pIC50 (second compound 10 µM) of less than 6.00 and a viability, T/C (second compound 0.1 µM, first compound 0.00316 µM) of 89.9%. For the same compound, the viability, T/C (second compound 0.1 µM, first compound 0.01 µM) was 99.2%, the viability, T/C [1] was 87% and the viability, T/C [2] was 76.5%. For the same compound, the viability, T/C [3] was 93.5%, the viability, T/C [4] was 111% and the viability, T/C (second compound 0.316 µM, first compound 0.00316 µM) was 81.3%. For the same compound, the viability, T/C (second compound 0.316 µM, first compound 0.01 µM) was 89.6%, the viability, T/C [7] was 80.7% and the viability, T/C [8] was 85.6%. The viability, T/C [9] was 104%, the viability, T/C [10] was 99.5% and the viability, T/C (second compound 1 µM, first compound 0.00316 µM) was 83.7%. It also gave a viability, T/C (second compound 1 µM, first compound 0.01 µM) of 86%, a viability, T/C [13] of 69.3% and a viability, T/C [14] of 72.3%. The viability, T/C [15] was 93.4%, the viability, T/C [16] was 67% and the viability, T/C (second compound 3.16 µM, first compound 0.00316 µM) was 74.5%. It also gave a viability, T/C (second compound 3.16 µM, first compound 0.01 µM) of 66.5%, a viability, T/C [19] of 68.8% and a viability, T/C [20] of 62.8%. For the same compound, the viability, T/C [21] was 54.7%, the viability, T/C [22] was 70% and the viability, T/C (second compound 10 µM, first compound 0.00316 µM) was 51.2%. The viability, T/C (second compound 10 µM, first compound 0.01 µM) was 71%, the viability, T/C [25] was 58.7% and the viability, T/C [26] was 53.6%. For the same compound, the viability, T/C [27] was 64.6% and the viability, T/C [28] was 63%.

For `COc1cc2nccc(Oc3ccc(NC(=O)C4(C(=O)Nc5ccc(F)cc5)CC4)cc3)c2cc1OC` + CC1OCC2(CCN(c3cnc(Sc4ccnc(N)c4Cl)c(N)n3)CC2)C1N, the pIC50 (second compound 0.1 µM) was less than 5.00, the pIC50 (second compound 0.316 µM) was less than 5.00 and the pIC50 (second compound 1 µM) was less than 5.00. The pIC50 (second compound 3.16 µM) was less than 5.00, the pIC50 (second compound 10 µM) was 5.45 and the viability, T/C [1] was 78.9%. It also gave a viability, T/C [2] of 77.1%, a viability, T/C [3] of 85.4% and a viability, T/C [4] of 75.1%. It also gave a viability, T/C [5] of 80%, a viability, T/C [6] of 77.6% and a viability, T/C [7] of 73.5%. It also gave a viability, T/C [8] of 64.7%, a viability, T/C [9] of 69.5% and a viability, T/C [10] of 72.7%. The viability, T/C [11] was 81.9%, the viability, T/C [12] was 59.6% and the viability, T/C [13] was 65%. The viability, T/C [14] was 67.4%, the viability, T/C [15] was 60.7% and the viability, T/C [16] was 75.7%. For the same compound, the viability, T/C [17] was 70.9%, the viability, T/C [18] was 52.7% and the viability, T/C [19] was 55.5%. The viability, T/C [20] was 67.9%, the viability, T/C [21] was 55.1% and the viability, T/C [22] was 61.7%. For the same compound, the viability, T/C [23] was 72.2%, the viability, T/C [24] was 44% and the viability, T/C [25] was 71.8%. For the same compound, the viability, T/C [26] was 59.7%, the viability, T/C [27] was 56.7% and the viability, T/C [28] was 53%. For the same compound, the viability, T/C [29] was 58.2% and the viability, T/C [30] was 42.6%.

Source: PubChem BioAssay AID1963873 (Molecular Pharmacology Branch, DTP, NCI, 2024)
